Holding throughout (format): binding
One test concerns the target T1, Mint 1 (PDZ Domain 1, 2) (Homo sapiens, UniProt Q02410).
T1 construct: When more than one PDZ domain was cloned, the DNA portion cloned represents the PDZ domains and the cDNA portion located between individual domains; made in house; host or cells: E. coli (DH5alpha, BL21 or JM109)
T1 sequence (Q02410 652-828 limits assumed): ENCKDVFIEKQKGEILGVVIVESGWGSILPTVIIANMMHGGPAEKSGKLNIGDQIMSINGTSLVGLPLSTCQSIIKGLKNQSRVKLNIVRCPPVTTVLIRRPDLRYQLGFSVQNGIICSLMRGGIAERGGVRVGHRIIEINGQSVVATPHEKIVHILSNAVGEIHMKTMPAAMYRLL
The test can be described thus: G' assay, TABLE 12. The conditions noted are these: A450 nm class of biotinylated PL peptide bound; 0 in conc columns = peptide 10 uM, protein 5 ug/ml. An outline of the steps: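 PL peptide binding to PDZ domain protein, peptide at 10 uM; protein at 5 ug/ml unless another concentration is listed for Kd determination. Bound peptide read at A450 nm and binned into classes 0–5.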

Test [1] addresses T2, PDZ-domain polypeptide (GST/PDZ fusion protein) (Homo sapiens, UniProt Q8TEW0).
T2 construct: made in house; host or cells: E. coli (DH5alpha, BL21 or JM109)
The test can be described thus: Apparent affinity (Kd) by titration of PL peptide in the G assay. As to conditions: PDZ PAR3, PDZ Domain 3. A digest of the protocol:
(§1)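 A fixed concentration of GST/PDZ fusion protein, 5 ug/ml by default, was mixed in solution with increasing labeled PL peptide (e.g. 0.1 uM-1 mM). Reaction times ranged from 10 minutes to 2 days at 4-37° C. Complexes were separated from free peptide and detected via the label as in the G assay, apparent affinity coming from the saturating concentration.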

The target in another test is T3, TIP-1 (GST-TIP-1) (Homo sapiens, UniProt O14907, I73S).
T3 construct: made in house; host or cells: E. coli DH5alpha
T3 sequence (O14907 3-123 I73S): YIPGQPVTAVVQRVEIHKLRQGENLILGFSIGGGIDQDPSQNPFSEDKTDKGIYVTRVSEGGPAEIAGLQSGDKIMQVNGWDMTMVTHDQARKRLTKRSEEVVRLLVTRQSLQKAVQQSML
The test can be described thus: G assay with unlabeled 8 amino acid competitor peptide (Example 4, FIGS. 2B, 2C). The method, then:
FIGS. 2A, 2B and 2C show binding and competition assays with the PDZ ligands of CD95 (Fas) and Tax for the PDZ domain of TIP-1.
Upon infection, the higher affinity of Tax could preferentially bind TIP-1 protein available in the cell, removing the TIP-1 bound to CD95 (Fas) and thereby rendering the cell less able to undergo apoptosis. In order to test this, competition experiments between Tax and CD95 for TIP-1 binding were performed using the ‘G Assay’, but adding additional unlabeled competitor peptide at step 9 of the ‘G Assay’ presented in EXAMPLE 3 section D.
FIGS. 2B and 2C show the results of these experiments. The graphs show the amount of binding of the biotinylated 20 amino acid peptide in the presence of increasing concentrations of unlabeled 8 amino acid competitor.

The target in test [2] is T4, PDZ-domain polypeptide (GST/PDZ fusion protein) (Homo sapiens, UniProt P78352).
T4 construct: made in house; host or cells: E. coli (DH5alpha, BL21 or JM109)
T4 sequence (P78352 whole entry, the tested form may be a part): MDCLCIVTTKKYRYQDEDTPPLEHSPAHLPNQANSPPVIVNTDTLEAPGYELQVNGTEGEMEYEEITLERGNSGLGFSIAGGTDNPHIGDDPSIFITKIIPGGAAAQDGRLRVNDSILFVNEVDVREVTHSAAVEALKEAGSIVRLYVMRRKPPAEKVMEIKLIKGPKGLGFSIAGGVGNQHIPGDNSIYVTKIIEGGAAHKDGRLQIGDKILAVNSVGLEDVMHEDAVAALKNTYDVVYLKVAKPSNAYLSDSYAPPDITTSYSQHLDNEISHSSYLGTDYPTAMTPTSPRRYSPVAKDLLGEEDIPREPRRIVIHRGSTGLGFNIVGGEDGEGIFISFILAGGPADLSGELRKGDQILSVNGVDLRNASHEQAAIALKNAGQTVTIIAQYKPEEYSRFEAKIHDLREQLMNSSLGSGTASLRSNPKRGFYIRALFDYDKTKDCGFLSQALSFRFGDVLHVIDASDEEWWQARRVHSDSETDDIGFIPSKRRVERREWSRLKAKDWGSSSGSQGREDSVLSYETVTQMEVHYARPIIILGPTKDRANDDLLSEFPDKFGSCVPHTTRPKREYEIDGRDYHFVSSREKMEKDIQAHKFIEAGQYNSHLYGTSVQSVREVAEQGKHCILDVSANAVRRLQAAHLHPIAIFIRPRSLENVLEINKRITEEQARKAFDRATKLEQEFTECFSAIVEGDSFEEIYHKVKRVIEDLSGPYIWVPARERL
The test can be described thus: Apparent affinity (Kd) by titration of PL peptide in the G assay. An outline of the steps:
as §1

Six compounds from US20050282743A1, “Molecular interactions in cells” (Arbor Vita Corporation, priority 2001, published 2005) can be followed below.

Structures are written as SMILES. Read-outs that look alike come from different tables or passages of the source. Peptide text beside a SMILES is read from it. * marks the point of attachment. Biotin = O=C1N[C@H]2[C@H](CS[C@H]2CCCCC(=O)*)N1

T2 sequence (Q8TEW0 whole entry, the tested form may be a part): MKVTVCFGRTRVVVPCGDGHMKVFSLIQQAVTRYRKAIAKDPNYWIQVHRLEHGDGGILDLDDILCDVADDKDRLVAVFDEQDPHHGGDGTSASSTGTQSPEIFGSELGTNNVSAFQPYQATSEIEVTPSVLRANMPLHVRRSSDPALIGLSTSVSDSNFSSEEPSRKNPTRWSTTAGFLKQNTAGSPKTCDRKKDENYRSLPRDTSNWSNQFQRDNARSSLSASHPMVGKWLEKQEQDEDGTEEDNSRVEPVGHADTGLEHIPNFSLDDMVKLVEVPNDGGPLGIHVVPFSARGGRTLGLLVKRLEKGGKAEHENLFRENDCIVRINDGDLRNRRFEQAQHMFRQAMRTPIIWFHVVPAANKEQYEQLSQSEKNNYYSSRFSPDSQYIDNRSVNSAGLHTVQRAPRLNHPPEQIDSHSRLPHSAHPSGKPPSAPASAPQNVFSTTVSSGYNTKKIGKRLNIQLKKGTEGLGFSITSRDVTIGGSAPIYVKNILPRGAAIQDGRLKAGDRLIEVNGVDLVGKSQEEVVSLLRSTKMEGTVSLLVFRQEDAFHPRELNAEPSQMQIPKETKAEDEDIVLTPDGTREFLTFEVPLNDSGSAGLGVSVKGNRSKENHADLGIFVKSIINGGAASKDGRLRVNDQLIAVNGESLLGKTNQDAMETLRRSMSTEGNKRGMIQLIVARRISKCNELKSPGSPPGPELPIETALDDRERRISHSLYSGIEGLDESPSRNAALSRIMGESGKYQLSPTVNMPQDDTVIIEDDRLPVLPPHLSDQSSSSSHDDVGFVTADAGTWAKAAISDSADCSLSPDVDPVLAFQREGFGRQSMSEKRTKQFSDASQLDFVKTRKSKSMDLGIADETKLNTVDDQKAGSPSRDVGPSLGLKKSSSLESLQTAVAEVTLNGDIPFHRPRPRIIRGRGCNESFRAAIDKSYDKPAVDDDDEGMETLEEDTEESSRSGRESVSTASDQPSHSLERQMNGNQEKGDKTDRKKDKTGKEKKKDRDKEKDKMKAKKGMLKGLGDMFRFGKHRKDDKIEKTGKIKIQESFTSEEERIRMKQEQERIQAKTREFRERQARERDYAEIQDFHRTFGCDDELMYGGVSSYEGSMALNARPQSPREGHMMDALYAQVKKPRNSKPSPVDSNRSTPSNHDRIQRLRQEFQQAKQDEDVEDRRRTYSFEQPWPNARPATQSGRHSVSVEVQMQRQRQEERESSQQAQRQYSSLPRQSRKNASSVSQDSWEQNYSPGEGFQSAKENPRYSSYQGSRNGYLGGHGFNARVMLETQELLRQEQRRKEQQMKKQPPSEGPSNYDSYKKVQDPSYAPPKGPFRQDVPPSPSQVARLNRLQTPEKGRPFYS

In the case of `CC(C)C[C@H](NC(=O)[C@H](C)NC(=O)[C@@H](NC(=O)[C@@H](NC(=O)[C@H](Cc1c[nH]cn1)NC(=O)[C@H](CC(C)C)NC(=O)CNC(=O)[C@H](CCC(N)=O)NC(=O)CNC(=O)CNC(=O)[C@H](C)NC(=O)[C@H](C)NC(=O)[C@H](CCCNC(=N)N)NC(=O)[C@H](C)NC(=O)[C@H](CO)NC(=O)[C@H](CC(=O)O)NC(=O)[C@H](CC(=O)O)NC(=O)[C@H](Cc1c[nH]c2ccccc12)NC(=O)[C@H](C)NC(=O)CCCC[C@@H]1SC[C@@H]2NC(=O)N[C@@H]21)C(C)C)[C@@H](C)O)C(=O)O` [LPAP] (Biotin-AWDDSARAAGGQGLHVTAL-OH; C-terminus assumed), on Mint 1 (PDZ Domain 1, 2), the Classification is recorded as 1 (A450 nm 0-1). Take `CC[C@H](C)[C@H](NC(=O)[C@H](C)NC(=O)[C@H](CC(C)C)NC(=O)[C@H](Cc1c[nH]c2ccccc12)NC(=O)[C@H](Cc1c[nH]cn1)NC(=O)[C@H](CCC(N)=O)NC(=O)[C@H](CC(C)C)NC(=O)[C@H](CCC(N)=O)NC(=O)[C@H](Cc1ccccc1)NC(=O)[C@H](CCC(N)=O)NC(=O)[C@H](CCCNC(=N)N)NC(=O)[C@@H](NC(=O)[C@H](CC(=O)O)NC(=O)[C@H](CCCNC(=N)N)NC(=O)[C@H](CCC(N)=O)NC(=O)[C@H](C)NC(=O)[C@@H](NC(=O)[C@H](CC(C)C)NC(=O)[C@H](Cc1c[nH]cn1)NC(=O)[C@H](Cc1c[nH]cn1)NC(=O)CCCC[C@@H]1SC[C@@H]2NC(=O)N[C@@H]21)C(C)C)[C@@H](C)CC)C(=O)O` [noradrenaline transporter] (Biotin-HHLVAQRDIRQFQLQHWLAI-OH; C-terminus assumed): in test [1] (Peptide Optimal Conc (Kd by titration of the PL peptide)), the Kd came to 600 nM.

Regarding `CC[C@H](C)[C@H](NC(=O)[C@H](CCC(N)=O)NC(=O)CCCC[C@@H]1SC[C@@H]2NC(=O)N[C@@H]21)C(=O)N[C@@H](CO)C(=O)N1CCC[C@H]1C(=O)NCC(=O)NCC(=O)N[C@@H](CC(C)C)C(=O)N[C@@H](CCC(=O)O)C(=O)N1CCC[C@H]1C(=O)N1CCC[C@H]1C(=O)N[C@@H](CO)C(=O)N[C@@H](CCC(=O)O)C(=O)N[C@@H](CCCCN)C(=O)N[C@@H](Cc1c[nH]cn1)C(=O)N[C@@H](Cc1ccccc1)C(=O)N[C@@H](CCCNC(=N)N)C(=O)N[C@@H](CCC(=O)O)C(=O)N[C@H](C(=O)N[C@@H](CCC(=O)O)C(=O)N[C@H](C(=O)O)C(C)C)[C@@H](C)O` [Tax], the “competition for binding to TIP-1 with labeled CD95 (FIG. 2B)” value on TIP-1 (GST-TIP-1) (unlabeled 8 amino acid Tax competitor at 20, 100, and 500 μM, 20 μM labeled CD95 20-mer) was “able to compete”. Besides, the “excess able to compete effectively for TIP-1 binding” value on TIP-1 (GST-TIP-1) (unlabeled Tax 8-mer versus labeled CD95) was found to be 5 fold. `CC[C@H](C)[C@H](NC(=O)[C@H](CCCCN)NC(=O)[C@@H](NC(=O)[C@H](CO)NC(=O)[C@@H]1CCCN1C(=O)[C@H](Cc1ccccc1)NC(=O)[C@@H](NC(=O)[C@@H](NC(=O)[C@H](CCCNC(=N)N)NC(=O)[C@H](CCC(=O)O)NC(=O)[C@H](CC(C)C)NC(=O)[C@H](CC(C)C)NC(=O)[C@H](CC(C)C)NC(=O)[C@@H](NC(=O)CNC(=O)[C@@H](NC(=O)CCCC[C@@H]1SC[C@@H]2NC(=O)N[C@@H]21)C(C)C)[C@@H](C)O)C(C)C)[C@@H](C)CC)C(C)C)C(=O)N[C@@H](C)C(=O)N[C@H](C(=O)N[C@@H](CC(C)C)C(=O)N[C@H](C(=O)O)C(C)C)[C@@H](C)O` [Adenovirus E4 Type9]: in test [2] (PDZ PSD95, PDZ Domain 1, Protein Optimal Conc 5, read-out: Peptide Optimal Conc (Kd by titration of the PL peptide)), the Kd was 100 nM. As to `CC[C@H](C)[C@H](NC(=O)[C@H](CO)NC(=O)[C@@H](NC(=O)[C@H](Cc1ccccc1)NC(=O)[C@H](CO)NC(=O)CCCC[C@@H]1SC[C@@H]2NC(=O)N[C@@H]21)[C@@H](C)O)C(=O)N[C@@H](CC(C)C)C(=O)N[C@H](C(=O)N[C@@H](CS)C(=O)N[C@@H](Cc1c[nH]cn1)C(=O)N[C@@H](CCC(N)=O)C(=O)N[C@@H](CCCNC(=N)N)C(=O)N[C@@H](CCCNC(=N)N)C(=O)N[C@H](C(=O)N[C@@H](CCC(N)=O)C(=O)N[C@@H](CCCNC(=N)N)C(=O)N[C@@H](CCCCN)C(=O)N[C@@H](CCC(=O)O)C(=O)N[C@H](C(=O)N[C@H](C(=O)N[C@@H](C)C(=O)O)C(C)C)[C@@H](C)O)[C@@H](C)O)[C@@H](C)O` [GluR5-2 (rat)], the Kd in test [2] (PDZ PSD95, PDZ Domain 3, titration of the PL peptide, read-out: Peptide Optimal Conc (Kd, dissociation constant)) turned out to be 100 nM. Regarding `CC[C@H](C)[C@H](NC(=O)[C@H](Cc1ccc(O)cc1)NC(=O)[C@H](CC(C)C)NC(=O)[C@H](CCC(N)=O)NC(=O)[C@H](Cc1c[nH]cn1)NC(=O)[C@H](CO)NC(=O)[C@H](C)NC(=O)[C@H](CC(C)C)NC(=O)[C@@H](NC(=O)[C@H](CC(=O)O)NC(=O)[C@H](CCSC)NC(=O)[C@H](Cc1ccccc1)NC(=O)[C@@H]1CCCN1C(=O)[C@H](CCCNC(=N)N)NC(=O)[C@@H](NC(=O)[C@H](CC(C)C)NC(=O)[C@H](CC(N)=O)NC(=O)[C@H](CC(=O)O)NC(=O)[C@@H](NC(=O)[C@H](CO)NC(=O)CCCC[C@@H]1SC[C@@H]2NC(=O)N[C@@H]21)[C@@H](C)O)C(C)C)[C@@H](C)O)C(=O)O` [presenilin-2] (Biotin-STDNLVRPFMDTLASHQLYI-OH; C-terminus assumed), the Kd in test [1] (titration of the PL peptide, read-out: Peptide Optimal Conc (Kd, dissociation constant)) was found to be 2000 nM.
